These results are taken from patent US9090632B2, “Bicyclic oxazole and thiazole compounds and their use as allosteric modulators of mGluR5 receptors” (Vanderbilt University, priority 2010, dated 2015).

One data set concerns the target human mGluR5 (Homo sapiens, UniProt P41594). As to the kind of experiment: Cell-based functional Ca2+ mobilization assay, potentiation of glutamate EC20 response (H10H cell-line). The settings on record: H10H cell-line expressing recombinant human mGluR5; for Emax: in presence of glutamate EC20, normalized to maximal glutamate response; for EC50: potentiation in presence of glutamate EC20. Summed up:
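H10H HEK293A cells expressing human mGluR5a were loaded with 2 μM fluo-4 AM in HBSS/20 mM HEPES/2.5 mM probenecid pH 7.4 and read on an FDSS 6000. Compound was added after a ~3 s baseline, followed 2.3 min later by an EC20 glutamate concentration; potentiation EC50 came from non-linear curve fitting.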

For data set [1], the system named is amphetamine-induced hyperlocomotion. As to the kind of experiment: Reversal of amphetamine-induced hyperlocomotion. Type of data set: in vivo, rat. The settings on record: male Sprague-Dawley rats; test compound po in 20% HP-β-CD; amphetamine sulfate 1 mg/kg sc. The method, then: Locomotor activity was assessed as mean distance traveled (cm) in standard 16×16 photocell testing chambers measuring 43.2 cm (Length)×43.2 cm (Width)×30.5 cm (Height) (Med Associates, St. Albans, Vt.). Animals were habituated to individual activity chambers for at least 30 min prior to drug administration. Following administration of drug or vehicle, activity was recorded for a 90 minute time period. Data was expressed as the mean (±SEM) distance traveled recorded in 5 min intervals over the test period. The data was analyzed using repeated measures analysis of variance (ANOVA) followed by post-hoc testing using Dunnett's test, when appropriate. A difference was considered significant when p≦0.05. […]
The animals were habituated in Smart Open Field locomotor activity test chambers (Hamilton-Kinder, San Diego, Calif.) with 16×16 photobeams to automatically record locomotor activity for 30 min and then dosed with vehicle or test compound. […] At 60 min, all rats were injected subcutaneously with 1 mg/kg amphetamine or vehicle and then monitored for an additional 60 min. Animals are monitored for a total of 120 minutes. Data are expressed as changes in ambulation defined as total number of beam breaks per 5 min periods.
The data for the dose-response studies were analyzed by a between-group analysis of variance. […]

human mGluR5, sequence (P41594 21-1180 isoform P41594-2 limits assumed): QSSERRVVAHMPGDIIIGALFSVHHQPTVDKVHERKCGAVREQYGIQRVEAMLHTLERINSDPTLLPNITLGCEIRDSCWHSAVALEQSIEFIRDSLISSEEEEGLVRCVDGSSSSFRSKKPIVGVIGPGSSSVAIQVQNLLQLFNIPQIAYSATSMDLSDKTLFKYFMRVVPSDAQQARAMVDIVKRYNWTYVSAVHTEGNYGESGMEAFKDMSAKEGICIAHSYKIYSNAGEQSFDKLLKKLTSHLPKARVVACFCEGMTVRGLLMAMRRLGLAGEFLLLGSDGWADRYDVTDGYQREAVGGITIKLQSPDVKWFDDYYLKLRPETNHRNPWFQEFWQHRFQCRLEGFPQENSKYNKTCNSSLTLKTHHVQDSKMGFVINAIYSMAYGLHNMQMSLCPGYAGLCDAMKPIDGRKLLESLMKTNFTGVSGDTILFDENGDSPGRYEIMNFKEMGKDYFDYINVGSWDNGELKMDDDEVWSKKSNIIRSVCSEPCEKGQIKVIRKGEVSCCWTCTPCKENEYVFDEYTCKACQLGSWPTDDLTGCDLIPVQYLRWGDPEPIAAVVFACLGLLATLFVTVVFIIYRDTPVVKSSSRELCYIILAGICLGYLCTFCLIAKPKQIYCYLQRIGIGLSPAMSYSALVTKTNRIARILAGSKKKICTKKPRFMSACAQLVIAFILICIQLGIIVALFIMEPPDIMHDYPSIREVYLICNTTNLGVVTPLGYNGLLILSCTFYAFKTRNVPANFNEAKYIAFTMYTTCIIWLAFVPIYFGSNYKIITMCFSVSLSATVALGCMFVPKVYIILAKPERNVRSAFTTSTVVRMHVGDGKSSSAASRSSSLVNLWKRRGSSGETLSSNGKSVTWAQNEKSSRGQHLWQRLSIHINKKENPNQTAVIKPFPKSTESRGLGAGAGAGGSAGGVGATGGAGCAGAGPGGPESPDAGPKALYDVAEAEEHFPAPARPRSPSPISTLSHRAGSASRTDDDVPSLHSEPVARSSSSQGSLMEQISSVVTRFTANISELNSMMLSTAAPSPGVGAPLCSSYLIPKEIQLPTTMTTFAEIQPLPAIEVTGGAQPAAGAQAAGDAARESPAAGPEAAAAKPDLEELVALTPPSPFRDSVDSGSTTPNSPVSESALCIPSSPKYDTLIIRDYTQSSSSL

Usually Emax stands for the greatest response seen or fitted, relative to the assay's reference. The EC50 is the midpoint of the concentration-response curve. Take `O=C(c1ccc(F)cc1)N1CCc2nc(COc3ccccc3)oc2C1` [Example B1, 5-[(4-fluorophenyl)carbonyl]-2-(phenoxymethyl)-4,5,6,7-tetrahydro[1,3]oxazolo[5,4-c]pyridine]: on human mGluR5, the Emax worked out at 84% and the 50% effective concentration (EC50) was 380 nM. In data set [1], the “reversal of amphetamine-induced hyperlocomotion” value is given as “Dose-dependent results for reversal of amphetamine-induced hyperlocomotion”.
The term melting point denotes the temperature of the solid-liquid transition. Regarding `O=C(c1cncc(F)c1)N1CCc2nc(COc3cccc(F)c3)oc2C1` [Example B67], the melting point is above 300 °C. At human mGluR5, the maximal effect (Emax) came to 49% and the EC50 is 3020 nM.
In turn, `Cc1ccc(OCc2nc3c(o2)CN(C(=O)c2ccc(F)cc2)CC3)cc1` [Example B70] registered a melting point of 137.2 °C. For the same compound, at human mGluR5, the maximal effect (Emax) is 56% and the EC50 is above 10000 nM.
In turn, `Cc1oncc1C(=O)N1CCc2nc(COc3ccccc3)oc2C1` [Example B71] displayed a melting point of 158.2 °C. Also, on human mGluR5, the maximal response (Emax) is 21% and the EC50 is 331 nM.
As for `O=C(c1ccc(OC(F)(F)F)cc1)N1CCc2nc(COc3ccccc3)oc2C1` [Example B75], the melting point is above 300 °C. For the same compound, on human mGluR5, the Emax turned out to be 70% and the EC50 is 933 nM.
The matching figures for `O=C(c1ccc2c(c1)OCO2)N1CCc2nc(COc3ccccc3)oc2C1` [Example B76]: 121.3 °C, 75% and 708 nM.
The compound `O=C(c1ccc(F)cc1F)N1CCc2nc(COc3cccc(F)c3)oc2C1` [Example B78] yielded a melting point of 90.1 °C. On human mGluR5, the maximal response (Emax) was 71% and the EC50 is 331 nM.
The matching figures for `O=C(c1ccc2ccccc2n1)N1CCc2nc(COc3ccccc3)oc2C1` [Example B79]: 107.6 °C, 59% and 1820 nM.
The matching figures for `CN(C)c1cccc(C(=O)N2CCc3nc(COc4ccccc4)oc3C2)c1` [Example B83]: 102.9 °C, 67% and 501 nM.
The corresponding values for `Cn1cccc1C(=O)N1CCc2nc(COc3ccccc3)oc2C1` [Example B84] are 78.5 °C, 53% and 257 nM.
Consider `N#Cc1cccc(C(=O)N2CCc3nc(COc4cccc(F)c4)oc3C2)c1` [Example B85], for which the melting point was above 300 °C. Moreover, on human mGluR5, the Emax is 57% and the half-maximal effective concentration (EC50) is 219 nM.
The matching figures for `Cc1nc(C(=O)N2CCc3nc(COc4ccccc4)oc3C2)c(C)o1` [Example B86]: 104.4 °C, 53% and above 10000 nM.
As to `O=C(c1ccno1)N1CCc2nc(COc3ccccc3)oc2C1` [Example B88], the melting point amounted to 92.5 °C. Also, on human mGluR5, the Emax was determined as 53% and the 50% effective concentration (EC50) is 1780 nM.
As for `N#Cc1ccc(C(=O)N2CCc3nc(COc4cccc(F)c4)oc3C2)cc1F` [Example B89], the melting point was determined as 102.9 °C. Besides, at human mGluR5, the Emax worked out at 61% and the EC50 is 2190 nM.
The corresponding values for `O=C(c1ccc(F)nc1)N1CCc2nc(COc3ccccc3)oc2C1` [Example B94] are 128.7 °C, 68% and 1120 nM.
The matching figures for `O=C(c1cnn2ccccc12)N1CCc2nc(COc3ccccc3)oc2C1` [Example B95]: 130.8 °C, 64% and above 10000 nM.
The corresponding values for `N#Cc1cc(C(=O)N2CCc3nc(COc4cccc(F)c4)oc3C2)ccc1F` [Example B97] are 147.7 °C, 81% and 1050 nM.
As to `N#Cc1cc(C(=O)N2CCc3nc(COc4ccccc4)oc3C2)ccc1F` [Example B98], the melting point came to 128.2 °C. Also, at human mGluR5, the Emax turned out to be 73% and the half-maximal effective concentration (EC50) was 741 nM.
The corresponding values for `O=C(c1cccc2c1OCCO2)N1CCc2nc(COc3ccccc3)oc2C1` [Example B99] are 55.5 °C, 57% and 776 nM.
For the compound `O=C(c1ncc(F)cc1F)N1CCc2nc(COc3cccc(F)c3)oc2C1` [Example B101], the melting point is 109.8 °C. Also, at human mGluR5, the Emax stood at 67% and the concentration giving a half-maximal response (EC50) is 3310 nM.
The corresponding values for `O=C(c1ccc(F)cc1)N1CCc2nc(COc3cccc(C(F)(F)F)c3)oc2C1` [Example B127] are 78.9 °C, 40% and above 10000 nM.
Take `O=C(c1ccnnc1)N1CCc2nc(COc3ccccc3)oc2C1` [Example B150]: the melting point was above 300 °C. Also, on human mGluR5, the Emax is 44% and the EC50 was above 10000 nM.
Consider `O=C(c1ccc2[nH]cnc2c1)N1CCc2nc(COc3ccccc3)oc2C1` [Example B156], for which the melting point was 198.1 °C. At human mGluR5, the Emax was 14% and the 50% effective concentration (EC50) was above 30200 nM.
